Source: patent publication US8252749B2, “Methods, kits, and compositions for generating new hair follicles and growing hair” (Follica, Inc., priority 2006, dated 2012)
Entries after “also recorded” stand apart in the source; their conditions may differ.

Columns and labels:
[1] = test system: hair re-growth in abraded areas; assay: hair re-growth after epidermal abrasion of mice; type: in vivo; conditions: epidermis of mice abraded, then recombinant EGF administered
Description: Depilation and epidermal abrasion. Mice were anesthetized with an injection of sodium pentobarbital before the hair on the back was clipped and depilated with Nair (Carter-Wallace, New York, N.Y.), then epidermis was removed using a rotating felt wheel as described by Argyris T, J. Invest. Dermatol. 75: 360 (1980). After scrubbing with 70% ethanol and drying under an incandescent lamp, the basal and supra-basal layers in an area of 1.5 cm^2/cm of the inter-follicular epidermis were removed by careful abrasion with a felt wheel mounted on a Dremel Moto-tool (Racine, Wis.). After abrasion, the skin was shiny and smooth, and there was no blood. One day later, the abraded area was covered by a fibrin crust, which fell off after 3-7 days, exposing the newly regenerated epidermis. A group of control mice was sacrificed immediately after abrasion to confirm microscopically the complete removal of the interfollicular epidermis.
Hair-bearing regions of the epidermis of mice is abraded, as described in Example 1, then administering recombinant EGF, as described in Example 1.

[2] = test system: new HF formation by EDIHN in wounded skin; assay: whole-mount EDIHN assay after excisional wounding of mice; type: in vivo
Description: Punch wound and excisional wound induction. The backs of 21-day-old mice were depilated as described for Example 1 and sterilized with alcohol, followed by 1% iodine solution. Punch wounds, 4 mm in diameter, were induced using a dermal biopsy punch, down to, but not through, the muscle fascia. Excisional wounds were full thickness and 1 cm in diameter; skin and panniculus carnosus was excised using fine surgical scissors.
Whole mounting and immunofluorescence. HF whole mounts were obtained by incubating fresh skin with EDTA (20 mM in PBS) at 37° C. overnight, then separating the epidermis and dermis. Epidermis was then fixed in 10% formalin for 10 min, room temperature (RT). Dermis was fixed in acetone overnight, RT. After rinsing with PBS, whole mounts were stained with antibodies for immunohistochemistry (schematically depicted in FIG. 12) and were imaged using a Leica confocal microscope.
21 day-old mice were wounded as described in previous Examples. Starting from day 11 after wounding, a time point corresponding to the point at which the wound had recently re-epithelialized, 10 mL of 1 mg/ml EGF was injected into the wound bed. EGF was injected once per day after this point for a total of 5 days. Three days later, the skin was collected, and whole-mount EDIHN assays were performed. […] In addition, whole mounts of control and treated skin were analyzed with anti-K17 antibody immunostaining. […] (FIGS. 25 C-D).
In an additional experiment, recombinant EGF (1 microgram (mcg)/microliter (mcl)) was injected at days 11, 13 and 15 after wounding. Skin was collected at 18 days after wounding and stained for K17 and alkaline phosphotase.
To determine the effect of administration of EGF receptor inhibitors on DIHN, the inhibitor AG1478 (150 μM in 10 μL volume) was administered as a single injection 11 days after incisional wounding (1 cm2) to the middle of the wound near the skin surface. […] Left panel: epidermis stained for K17, with three large hair follicles next to each other. Right panel: dermis stained for AP with large coalescing dermal papilla areas.

| Compound | hair re-growth in the abraded areas [1] | HF formation as assessed by gross morphology ([2]; 21 day-old mice, 10 mL of 1 mg/ml EGF injected into wound bed once per day for 5 days from day 11 after wounding, skin collected three days later) | new HF formation, whole mounts with anti-K17 antibody immunostaining ([2]; 21 day-old mice, EGF injected into wound bed once per day for 5 days from day 11 after wounding, n=4 vs control n=2) | EDIHN, skin stained for K17 and alkaline phosphotase ([2]; recombinant EGF 1 mcg/mcl injected at days 11, 13 and 15 after wounding, skin collected at 18 days) | generation of hair follicles (number and size) compared with control mice that were wounded only ([2]; 150 μM in 10 μL, single injection 11 days after excisional wounding (1 cm diameter), middle of the wound) |
| --- | --- | --- | --- | --- | --- |
| EGF: epidermal growth factor, recombinant, injected into the wound bed | prevents hair re-growth | prevented HF formation | no new HF formation; also recorded: inhibits HF formation | inhibited EDIHN |  |
| COc1cc2ncnc(Nc3cccc(Cl)c3)c2cc1OC [AG1478, reference compound] |  |  |  |  | more and larger hair follicles; also recorded: more and larger HF |
